According to ChEMBL document CHEMBL5230101, “Unique Domain for a Unique Target: Selective Inhibitors of Host Cell DDX3X to Fight Emerging Viruses” (J Med Chem, 2020):
The source made the active and inactive calls. The calls are words filed in the database; no cut-off is given here.

Experiments:
[1] = target: ATP-dependent RNA helicase DDX3X (Homo sapiens) (UniProt O00571); test: Inhibition of human recombinant full length DDX3X helicase activity expressed in Escherichia coli using dsRNA as substrate measured after 40 mins by FRET assay
Sequence of ATP-dependent RNA helicase DDX3X (Homo sapiens) (O00571 2-662 limits assumed): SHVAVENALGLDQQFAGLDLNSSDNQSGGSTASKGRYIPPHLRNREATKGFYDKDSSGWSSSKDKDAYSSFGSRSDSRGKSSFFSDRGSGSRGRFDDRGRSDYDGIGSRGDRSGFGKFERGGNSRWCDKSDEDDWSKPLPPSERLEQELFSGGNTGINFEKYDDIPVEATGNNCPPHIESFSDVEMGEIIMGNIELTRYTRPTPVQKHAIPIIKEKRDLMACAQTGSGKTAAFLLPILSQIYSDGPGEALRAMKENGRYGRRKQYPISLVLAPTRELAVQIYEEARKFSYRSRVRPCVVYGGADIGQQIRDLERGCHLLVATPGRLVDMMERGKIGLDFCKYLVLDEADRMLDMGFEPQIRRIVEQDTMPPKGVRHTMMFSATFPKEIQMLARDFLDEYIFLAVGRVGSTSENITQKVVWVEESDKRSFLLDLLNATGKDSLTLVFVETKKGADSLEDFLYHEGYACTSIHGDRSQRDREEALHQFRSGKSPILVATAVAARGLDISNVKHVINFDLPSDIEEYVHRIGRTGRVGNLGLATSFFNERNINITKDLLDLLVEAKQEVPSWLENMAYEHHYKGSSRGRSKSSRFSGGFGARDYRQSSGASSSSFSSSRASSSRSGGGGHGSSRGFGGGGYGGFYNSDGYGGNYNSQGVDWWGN

dengue virus type 2 = test: Antiviral activity against DENV2 New Guinea C strain infected in human Huh-7 cells measured after 72 hrs by immunodetection assay; type: functional, organism-based; settings: Huh-7, 72 h
West Nile virus = test: Antiviral activity against WNV infected in human Huh-7 cells preincubated with cells for 1 hr and measured after 4 days by plaque reduction assay; type: functional, organism-based
Huh-7 [2] = test: Cytotoxicity against human Huh-7 cells incubated for 72 hrs by Cell Titer-Glo luminescence assay; type: functional
Huh-7 [3] = test: Cytotoxicity against human Huh-7 cells incubated for 3 days by MTT assay; type: functional; settings: Huh-7, 72 h, time 3 day
Homo sapiens [4] = species: Homo sapiens; test: Inhibition of human recombinant full length DDX3X E256A mutant helicase activity using dsRNA as substrate measured after 40 mins by FRET assay
Homo sapiens [5] = species: Homo sapiens; test: Inhibition of human recombinant full length DDX3X R262A mutant helicase activity using dsRNA as substrate measured after 40 mins by FRET assay
[6] = target: T1, ATP-dependent RNA helicase DDX1 (Homo sapiens) (UniProt Q92499); test: Inhibition of human DDX1 helicase activity
T1 sequence (whole entry): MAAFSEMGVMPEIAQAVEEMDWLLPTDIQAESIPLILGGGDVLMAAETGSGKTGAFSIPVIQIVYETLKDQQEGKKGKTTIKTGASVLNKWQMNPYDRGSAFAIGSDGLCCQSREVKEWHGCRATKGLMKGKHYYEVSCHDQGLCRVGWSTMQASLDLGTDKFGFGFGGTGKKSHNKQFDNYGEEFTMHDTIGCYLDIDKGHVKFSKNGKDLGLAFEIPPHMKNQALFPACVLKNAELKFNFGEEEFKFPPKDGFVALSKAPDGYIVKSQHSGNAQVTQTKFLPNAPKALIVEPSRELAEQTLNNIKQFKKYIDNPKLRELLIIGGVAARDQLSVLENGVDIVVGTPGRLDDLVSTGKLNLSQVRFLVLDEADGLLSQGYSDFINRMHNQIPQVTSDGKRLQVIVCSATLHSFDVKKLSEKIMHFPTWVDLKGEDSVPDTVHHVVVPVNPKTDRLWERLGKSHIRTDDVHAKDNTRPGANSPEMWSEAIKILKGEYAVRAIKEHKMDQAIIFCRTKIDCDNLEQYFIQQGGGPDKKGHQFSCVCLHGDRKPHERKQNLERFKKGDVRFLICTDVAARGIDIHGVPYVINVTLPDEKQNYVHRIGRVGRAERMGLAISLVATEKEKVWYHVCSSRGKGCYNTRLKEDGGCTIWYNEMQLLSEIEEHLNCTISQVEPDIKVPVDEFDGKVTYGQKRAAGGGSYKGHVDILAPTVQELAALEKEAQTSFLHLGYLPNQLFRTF

Arabidopsis thaliana = test: Inhibition of Arabidopsis thaliana STRS2 helicase activity
Hepacivirus hominis = test: Inhibition of Hepatitis C virus NSP 3 helicase activity

## NC[C@H](O)CN(c1ccccc1)c1ccccc1
[1]
  ID50: 0.007 µM
Dengue virus type 2
  IC50: 12.6 µM
West Nile virus
  IC50: 0.9 µM
Huh-7 [2]
  CC50: 120 µM
Huh-7 [3]
  CC50: > 100 µM

## CNC(=O)N1c2ccccc2CCc2ccccc21
[1]
  ID50: inactive

## COc1ccc(CN)cc1Cn1cccn1
[1]
  ID50: inactive

## NC(=O)c1ncn([C@@H]2O[C@H](CO)[C@@H](O)[C@H]2O)n1 [RIBAVIRIN]
West Nile virus
  IC50: 91.5 µM
Huh-7 [2]
  CC50: > 100 µM
Huh-7 [3]
  CC50: > 100 µM

## NCC(O)CN(c1ccccc1)c1ccccc1 (stereo not drawn)
[1]
  ID50: 0.7 µM

## NCC(O)CN(c1ccccc1)c1ccccc1 (racemic) [listing 1 of 2 here]
Dengue virus type 2
  IC50: 7.9 µM
West Nile virus
  IC50: 2.3 µM
Huh-7 [2]
  CC50: 100 µM
Huh-7 [3]
  CC50: > 100 µM

## OC(C#CCN1CCCCC1)(c1ccccc1)c1ccccc1
[1]
  ID50: inactive

## CC1CC(C)CN(S(=O)(=O)c2ccc(N)cc2)C1 (stereo not drawn)
[1]
  ID50: inactive

## Nc1ccc(Nc2nc3ccccc3[nH]2)cc1
[1]
  ID50: inactive

## CC(=O)N1c2ccccc2CCc2cc([N+](=O)[O-])ccc21
[1]
  ID50: inactive

## NCC(O)CN(c1ccccc1)c1ccccc1 (racemic) [listing 2 of 2 here]
[1]
  ID50: 0.002 µM
Homo sapiens [4]
  ID50: 73 µM
Homo sapiens [5]
  ID50: 0.001 µM
[6]
  ID50: 18 µM
Arabidopsis thaliana
  ID50: > 100 µM
Hepacivirus hominis
  ID50: > 100 µM

## CCOC(=O)Nc1ccc2c(c1)N(C(=O)CCN(CC)CC)c1ccccc1CC2
[1]
  ID50: inactive

## Nc1ccc(S(=O)(=O)c2ccccc2)cc1
[1]
  ID50: 200 µM

## CC(N)Cc1cn(Cc2ccccc2)c2ccccc12 (stereo not drawn)
[1]
  ID50: inactive

## NC[C@@H](O)CN(c1ccccc1)c1ccccc1
[1]
  ID50: 0.006 µM
Homo sapiens [4]
  ID50: 0.3 µM
Homo sapiens [5]
  ID50: 0.004 µM
[6]
  ID50: 58 µM
Arabidopsis thaliana
  ID50: > 100 µM
Hepacivirus hominis
  ID50: > 100 µM
Dengue virus type 2
  IC50: 6.3 µM
West Nile virus
  IC50: 0.88 µM
Huh-7 [2]
  CC50: 79 µM
Huh-7 [3]
  CC50: > 100 µM
